Experimental findings from patent publication US11147854B2, “Peptides having immunomodulatory properties” (Riptide Bioscience, Inc., priority 2018, dated 2021) are described below.

Assay [1] deals with macrophages from scleroderma patients. Nature of the assay: Viability of peripheral blood derived macrophages from scleroderma patients (PrestoBlue assay). The class given is cell-based, human. The conditions noted are these: for effect on scleroderma macrophage samples (high arginase:IFNg) versus healthy control samples (low arginase:IFNg) (FIG. 4A-4B): FIG. 4B versus FIG. 4A; for viability of macrophages (FIG. 3): samples from human scleroderma patients, 96 hours incubation, various concentrations; for macrophage viability: scleroderma (SSc) patient with raised arginase:IFNg ratio of 8.8, even at 0.01 uM, 96 hours, PrestoBlue. The procedure: (§1) Peripheral blood derived macrophages were cultured from healthy volunteers and scleroderma patients and cultured in MCS-F for 7 days prior to qPCR for arginasel (M2 marker) or IFNg (M1 marker), followed by treatment with RP peptides at a range of doses 0-100 uM. After 48 hours media were exchanged and cells were retreated with the peptides. After 96 hours cell viability was assayed by PrestoBlue assay. (FIG. 4A) Macrophages from a healthy control with low arginase:IFNg ratio of 3.6, were resistant to the effects of RP peptides of interest (RP182, RP185, RP832C, RP837) on viability.

The subject of assay [2] is macrophages from healthy controls. Nature of the assay: Viability of peripheral blood derived macrophages from healthy volunteers (PrestoBlue assay). To be noted: healthy control with low arginase:IFNg ratio of 3.6, peptides 0-100 uM, 96 hours. In kind it is cell-based, human. The procedure:
as §1

The test system of a further assay is CT26 Xenograft. Nature of the assay: Mouse tumor inhibition model with and without anti-PD1 antibody (FIG. 2). To be noted: peptide 10 mg/kg qd. In kind it is in vivo. Here is the method:
The peptides RP832C and RP185 were administered at 10 mg/kg qd. The anti-PD1 antibody was administered intraperitoneally at 200 ug twice per week.

With RWKFGGFKWR [RP832C], in assay [1], the “effect on scleroderma macrophage samples (high arginase:IFNg) versus healthy control samples (low arginase:IFNg) (FIG. 4A-4B)” value was “selective effect”, the “viability of macrophages (FIG. 3)” value is recorded as “reduce viability” and the macrophage viability result is “greatly reduced viability”. Besides, in assay [2], the macrophage viability entry is “resistant”. Besides, the tumor volume entry with CT26 Xenograft is given as “reduce tumor volume”.
Consider KFRKAFKRFF [RP182], for which the values for the macrophage viability entry in assay [1] and in assay [2] were “greatly reduced viability” and “resistant”, respectively.
In the case of FFKKFFKKFK [RP185], the macrophage viability result was “greatly reduced viability” in assay [1] and “resistant” in assay [2]. Also, the tumor volume entry in the assay on CT26 Xenograft is listed as “reduce tumor volume”.
Turning to FWKRFVRKWR [RP837], in assay [1], the “effect on scleroderma macrophage samples (high arginase:IFNg) versus healthy control samples (low arginase:IFNg) (FIG. 4A-4B)” value was “selective effect”, the “viability of macrophages (FIG. 3)” value is reported as “reduce viability” and the macrophage viability result was “greatly reduced viability”. Further, in assay [2], the macrophage viability result was “resistant”.
